# Active and inactive are the calls of the source. The rule behind the calls is not given here.
# Target: Neuropilin-1 (Homo sapiens, UniProt O14786)
# Assay: Inhibition of VEGF165-NRP1 interaction by ELISA
# Conditions: not given
# Chain of Neuropilin-1 (O14786 whole entry): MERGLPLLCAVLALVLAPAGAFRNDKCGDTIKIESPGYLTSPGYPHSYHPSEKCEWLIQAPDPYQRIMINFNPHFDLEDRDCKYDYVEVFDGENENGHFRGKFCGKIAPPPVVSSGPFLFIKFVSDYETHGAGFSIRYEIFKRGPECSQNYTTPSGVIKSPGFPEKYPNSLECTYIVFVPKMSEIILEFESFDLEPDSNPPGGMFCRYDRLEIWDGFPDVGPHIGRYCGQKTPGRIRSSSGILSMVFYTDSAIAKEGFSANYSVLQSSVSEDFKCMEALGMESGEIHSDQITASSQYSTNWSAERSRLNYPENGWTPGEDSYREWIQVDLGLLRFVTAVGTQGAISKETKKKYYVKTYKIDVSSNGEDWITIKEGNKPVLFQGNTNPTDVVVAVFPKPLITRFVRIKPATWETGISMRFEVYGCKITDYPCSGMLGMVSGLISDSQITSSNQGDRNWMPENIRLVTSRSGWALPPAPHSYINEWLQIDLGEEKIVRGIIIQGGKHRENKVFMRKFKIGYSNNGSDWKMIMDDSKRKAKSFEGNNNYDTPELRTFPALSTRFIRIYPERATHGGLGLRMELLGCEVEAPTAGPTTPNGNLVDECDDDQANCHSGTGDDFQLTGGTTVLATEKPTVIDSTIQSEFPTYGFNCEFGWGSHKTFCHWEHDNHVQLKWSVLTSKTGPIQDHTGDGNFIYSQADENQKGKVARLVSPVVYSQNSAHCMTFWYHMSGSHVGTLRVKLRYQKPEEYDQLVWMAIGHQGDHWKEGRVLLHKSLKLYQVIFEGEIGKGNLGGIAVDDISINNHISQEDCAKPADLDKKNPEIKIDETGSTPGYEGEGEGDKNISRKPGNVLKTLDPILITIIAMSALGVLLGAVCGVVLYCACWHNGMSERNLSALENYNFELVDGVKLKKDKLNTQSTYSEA
Structure (SMILES),Activity,IC50 [µM]
CCN(CC)CCNc1c(-c2ccccc2)c(C#N)c2cccc(Cl)n12,inactive,–
N#Cc1c(C2CCCCC2)c(NCCc2ccccc2)n2c(Cl)cccc12,inactive,–
COc1ccccc1-c1c(C#N)c2cccc(Cl)n2c1NCCc1ccccc1,–,3
N#Cc1c(-c2cccc(F)c2)c(NCCc2ccccc2)n2c(Cl)cccc12,–,2
COc1cccc(-c2c(C#N)c3cccc(Cl)n3c2NCCc2ccccc2)c1,–,2
N#Cc1c(-c2ccccc2)c(NCC(=O)NCc2ccco2)n2c(Cl)cccc12,–,19
N#Cc1c(-c2cccc(S)c2)c(NCCc2ccccc2)n2c(Cl)cccc12,–,6
N#Cc1c(-c2ccccc2Cl)c(NCCc2ccccc2)n2c(Cl)cccc12,–,3
N#Cc1c(-c2ccccc2)c(NCc2ccc(Cl)c(Cl)c2)n2c(Cl)cccc12,–,13
CN(C)CCNc1cccc2c(C#N)c(-c3ccccc3)c(NC3CCCCC3)n12,–,42
Cc1cccc(C)c1Nc1c(-c2ccccc2)c(C#N)c2cccc(Cl)n12,–,60
CN(CCNc1c(-c2ccccc2)c(C#N)c2cccc(Cl)n12)Cc1ccccc1,–,4
N#Cc1c(-c2ccc(F)cc2)c(NCCc2ccccc2)n2c(Cl)cccc12,–,5
CSc1cccc2c(C#N)c(-c3ccccc3)c(NC3CCCCC3)n12,inactive,–
N#Cc1c(-c2ccccc2S)c(NCCc2ccccc2)n2c(Cl)cccc12,–,10
N#Cc1c(-c2ccnc3ccccc23)c(NCCc2ccccc2)n2c(Cl)cccc12,inactive,–
N#Cc1c(-c2ccccc2)c(NC2CCCCC2)n2c(Cl)cccc12,–,29
N#Cc1c(-c2ccccc2)c(NCCc2ccccc2)n2c(Cl)cccc12,–,2
CSc1ccc(-c2c(C#N)c3cccc(Cl)n3c2NCCc2ccccc2)cc1,–,3
N#Cc1c(C2CCNCC2)c(NCCc2ccccc2)n2c(Cl)cccc12,–,95
N#Cc1c(-c2ccccc2)c(NCCN)n2c(Cl)cccc12,–,43
N#Cc1c(-c2ccccc2)c(NC2CCCCC2)n2c(SCC(=O)O)cccc12,inactive,–
N#Cc1c(-c2ccncc2)c(NCCc2ccccc2)n2c(Cl)cccc12,–,6
N#Cc1c(-c2ccccn2)c(NCCc2ccccc2)n2c(Cl)cccc12,–,2
CN(C)CCCOc1ccc(-c2c(C#N)c3cccc(Cl)n3c2NCCc2ccccc2)cc1,–,10
N#Cc1c(-c2ccccc2)c(NC2CCCCC2)n2c(F)cccc12,inactive,–

Structure (SMILES),Activity,IC50 [µM]
N#Cc1c(-c2ccccc2)c(NCCc2ccc(Cl)cc2)n2c(Cl)cccc12,–,4
COc1ccc(-c2c(C#N)c3cccc(Cl)n3c2NCCc2ccccc2)cc1,–,5
Cc1cnc(-c2c(C#N)c3cccc(Cl)n3c2NCCc2ccccc2)s1,–,22
COc1ccc(CNc2c(-c3ccccc3)c(C#N)c3cccc(Cl)n23)c(OC)c1,inactive,–
N#Cc1c(CCc2ccccc2)c(NCCc2ccccc2)n2c(Cl)cccc12,–,2
N#Cc1c(-c2cccc(Cl)c2)c(NCCc2ccccc2)n2c(Cl)cccc12,–,3
Cc1ccc(C)c(-c2c(C#N)c3cccc(Cl)n3c2NCCc2ccccc2)c1,–,6
N#Cc1c(-c2ccccc2)c(NC(=O)c2ccccc2)n2c(Cl)cccc12,inactive,–
COC(=O)CSc1cccc2c(C#N)c(-c3ccccc3)c(NC3CCCCC3)n12,inactive,–
N#Cc1c(-c2ccccc2)c(NCCc2ccccc2Cl)n2c(Cl)cccc12,–,3
CC(C)(C)c1ccc(-c2c(C#N)c3cccc(Cl)n3c2NCCc2ccccc2)cc1,–,14
N#Cc1c(-c2ccccc2)c(N)n2c(Cl)cccc12,inactive,–
CN(C)c1ccc(Nc2c(-c3ccccc3)c(C#N)c3cccc(Cl)n23)cc1,–,47
Cc1ccc(-c2c(C#N)c3cccc(Cl)n3c2NCCc2ccccc2)cc1,–,5
N#Cc1c(-c2ccccc2F)c(NCCc2ccccc2)n2c(Cl)cccc12,–,3
CN(C)CCCOc1cccc2c(C#N)c(-c3ccccc3)c(NC3CCCCC3)n12,–,79
N#Cc1c(-c2ccccc2)c(Nc2cccc(N)c2)n2c(Cl)cccc12,–,80
Cc1ccccc1-c1c(C#N)c2cccc(Cl)n2c1NCCc1ccccc1,–,9
N#Cc1c(-c2ccc(Cl)cc2)c(NCCc2ccccc2)n2c(Cl)cccc12,–,2
COCCNc1c(-c2ccccc2)c(C#N)c2cccc(Cl)n12,–,9
N#Cc1c(CCO)c(NCCc2ccccc2)n2c(Cl)cccc12,–,13
N#Cc1c(-c2ccc(OC(F)(F)F)cc2)c(NCCc2ccccc2)n2c(Cl)cccc12,–,13
N#Cc1c(-c2ccc(F)c3ccccc23)c(NCCc2ccccc2)n2c(Cl)cccc12,–,4
CC(=O)Nc1c(-c2ccccc2)c(C#N)c2cccc(Cl)n12,inactive,–
N#Cc1c(-c2cccnc2)c(NCCc2ccccc2)n2c(Cl)cccc12,–,4
CN(C)CCCNc1c(-c2ccccc2)c(C#N)c2cccc(Cl)n12,–,62

# System: PC-3
# Assay: Inhibition of PC3 cell migration
# Format: functional, cell-based
# Conditions: Homo sapiens
row,Structure (SMILES),IC50 [µM]
1,N#Cc1c(-c2cccc(F)c2)c(NCCc2ccccc2)n2c(Cl)cccc12,8
2,N#Cc1c(-c2ccccc2)c(NCC(=O)NCc2ccco2)n2c(Cl)cccc12,54
3,N#Cc1c(-c2ccccc2)c(NC2CCCCC2)n2c(Cl)cccc12,72
4,N#Cc1c(-c2ccccc2)c(NCCc2ccccc2)n2c(Cl)cccc12,21
5,N#Cc1c(-c2ccccc2)c(NCCc2ccccc2Cl)n2c(Cl)cccc12,23

# System: PC-3
# Assay: Toxicity against PC3 cell line by LDH-release assay
# Format: cell-based
# Conditions: human
row,Structure (SMILES),Activity
1,N#Cc1c(-c2cccc(F)c2)c(NCCc2ccccc2)n2c(Cl)cccc12,Non-toxic
2,N#Cc1c(-c2ccccc2)c(NCC(=O)NCc2ccco2)n2c(Cl)cccc12,Non-toxic
3,N#Cc1c(-c2ccccc2)c(NC2CCCCC2)n2c(Cl)cccc12,Non-toxic
4,N#Cc1c(-c2ccccc2)c(NCCc2ccccc2)n2c(Cl)cccc12,Non-toxic
5,N#Cc1c(-c2ccccc2)c(NCCc2ccccc2Cl)n2c(Cl)cccc12,Non-toxic
